Data taken from patent publication EP2698385A1, “Detection of synthetic cannabinoids” (priority 2012, dated 2014).

How the values were obtained:
[1] = test system: antiserum raised to Immunogen I (Hapten A-BTG); assay: Competitive ELISA microtiter plate assay (Example 19), antiserum raised to Immunogen I, Hapten A-HRP conjugate as detection reagent; assay type: binding, sheep; conditions: for binding to the antibody produced from Immunogen I: result in words
Method: (§1) Aqueous solutions of the immunogens prepared in examples 5 and 13 were formulated with Freund's Complete Adjuvant (FCA) to form emulsions consisting of 2mg/ml Immunogen I and 2mg/ml of Immunogen II in 50%(v/v) FCA. Three sheep were immunised with each emulsion (1° immunisations), 0.25ml being intramuscularly injected at four sites in the rump of each animal. Subsequent immunisations (boosts 2-8) contained 1mg/ml Immunogen I and 1mg/ml Immunogen II. All boosts were emulsified in 50%(v/v) Freund's Incomplete Adjuvant (FIA) and administered to the appropriate sheep in the same manner as the 1° immunisations, at monthly intervals. Blood sampling took place 7-14 days after each boost. Each sample was processed to produce antiserum, which was further purified by caprylic acid and ammonium sulphate precipitation to yield an immunoglobulin (Ig) fraction. The Ig fraction was evaluated by competitive ELISA microtiter plate assay, as described in example 19 below.
(§2) Example 19: Development of competitive ELISA for JWH synthetic cannabinoids and metabolites. • (a) The wells of an enhanced binding 96 well polystyrene microtiter plate were coated with the Ig fraction of the antiserum raised to Immunogen I (Hapten A-BTG - example 5) and diluted in 10mM Tris, pH8.5 (125µl/well). The appropriate antibody coating concentration was determined using standard ELISA checkerboard techniques. The plate was incubated for 2 hours at 37°C, washed 4 times over a 10-minute period with Tris buffered saline containing Tween 20 (TBST) and tapped dry. Standard solutions of JWH synthetic cannabinoids, metabolites and selected molecules were prepared in TBST and 50µl of each was added to the appropriate wells. 75µl of conjugate (Hapten A-HRP) diluted in Tris buffer containing EDTA, D-mannitol, sucrose, thimerosal and BSA, was added to each of the wells. The appropriate dilution of conjugate was also determined using standard ELISA checkerboard techniques. The plate was incubated at 25°C for 1 hour. The excess unbound conjugate was removed by washing 6 times over a 10-minute period with TBST and tapped dry. 125µl of tetramethylbenzedine (TMB) substrate solution was added to each well of the plate that was then incubated for 15-20 minutes in the dark at room temperature. The reaction was terminated by addition of 125µl of 0.2M sulphuric acid to each well. The absorbance was then measured at 450nm using a microtiter plate reader. Employing each series of standards, calibration curves were generated and these were used to determine the specificity of the immunoassay for the JWH synthetic cannabinoids, metabolites and selected molecules. The results of this study are presented in Tables 1 to 3, cross-reactivity being calculated according to the following formula: %CR = […] /IC50,CR X 100 [formula] Where %CR is the percentage cross-reactivity, IC50, YWH-018 is the concentration of JWH-018 that causes 50% displacement of signal and IC50, CR is the concentration of JWH synthetic cannabinoid/metabolite/selected molecule that causes 50% displacement of signal.
Table 1: Data generated from a competitive microtiter plate assay for JWH synthetic cannabinoids and metabolites, employing antiserum raised to Immunogen II (Hapten B-BTG) and conjugate (Hapten A-HRP) as detection reagent. (b) In a similar manner to that described in Example 19(a), the wells of a 96 well microtiter plate were coated with the Ig fraction of the antiserum raised to Immunogen II ([…]). Conjugate (Hapten A-HRP) was employed as a detection reagent. […]

[2] = test system: antibodies raised to Immunogens I & II; assay: Competitive ELISA (Example 19), sensitivity and cross-reactivity of selected molecules, one result for both antibodies; assay type: binding, sheep; conditions: result in words
Method: as §1, §2
Table 2: Data generated from a competitive microtiter plate assay for JWH synthetic cannabinoids and metabolites, employing antiserum raised to Immunogen I (Hapten A-BTG) and conjugate (Hapten A-HRP) as detection reagent. • (c) The resulting competitive ELISA for synthetic cannabinoids and metabolites was further employed to analyse urine and serum samples from 20 patients (Table 3). • (d) The resulting competitive ELISA for synthetic cannabinoids and metabolites was also employed to test for the 5-fluoropentyl derivative of JWH-018, (1-(5-fluoropentyl)indol-3yl (1-naphthyl) methanone (Table 4).

[3] = Table 2, 40 ng/ml highest concentration tested
[4] = Table 2, CR based on 100% for JWH-018

| Structure (SMILES) | IC50 [1, 3] [ng/mL] | % Cross-reactivity [1, 4] | binding to the antibody produced from Immunogen I [1] | binding / cross-reaction with antibodies raised from Immunogens I and II [2] | IC50 ([1]; first Table 4, Immunogen I) [ng/mL] | % Cross-reactivity ([1]; first Table 4, Immunogen I, JWH-018 = 100) [%] | IC50 ng/ml [1, 3] |
| --- | --- | --- | --- | --- | --- | --- | --- |
| O=C(c1cccc2ccccc12)c1c[nH]c2ccccc12 [3-(1-naphthoyl)-1H-Indole, 3-(1-naphthoyl)-1H-indole] | 3.84 | 70.57% |  |  |  |  |  |
| CCCCCn1cc(C(=O)c2cccc3ccccc23)c2c(O)cccc21 [JWH-018 4-hydroxyindole metabolite] | 25.51 | 10.62% |  |  |  |  |  |
| CCCCCn1cc(C(=O)c2cccc3ccccc23)c2cc(O)ccc21 [JWH-018 5-hydroxyindole metabolite] | 0.39 | 694.87% | able to bind |  |  |  |  |
| CCCCCn1cc(C(=O)c2cccc3ccccc23)c2ccc(O)cc21 [JWH-018 6-hydroxyindole metabolite] | 2.04 | 132.84% | able to bind |  |  |  |  |
| O=C(c1cccc2ccccc12)c1cn(CCCCCO)c2ccccc12 [JWH-018 N-(5-hydroxypentyl) metabolite] | 0.18 | 1505.56% |  |  |  |  |  |
| O=C(O)CCCCn1cc(C(=O)c2cccc3ccccc23)c2ccccc21 [JWH-018 N-pentanoic acid metabolite] | 0.42 | 645.24% |  | bind |  |  |  |
| CCCCCn1cc(C(=O)c2cccc3ccccc23)c2ccccc21 [JWH-018] | 2.71 | 100.00% | able to bind |  | 2.30 | 100.00 |  |
| CCCCn1cc(C(=O)c2cccc3ccccc23)c2ccccc21 [JWH-073] | 0.93 | 291.40% |  |  |  |  |  |
| CCCCCn1cc(C(=O)c2ccc(Cl)c3ccccc23)c2ccccc21 [JWH-398] |  | << 6.78% |  | bind |  |  | >> 40 ng/ml |
| O=C(c1cccc2ccccc12)c1cn(CCN2CCOCC2)c2ccccc12 [WIN 55,225 (other name JWH-200), JWH-200] | 0.31 | 874.19% |  |  |  |  |  |
